Target: T1, human RXFP1 (Homo sapiens, UniProt Q9HBX9)
T1 construct: expressed in transfected cells
T1 sequence (Q9HBX9 1-757): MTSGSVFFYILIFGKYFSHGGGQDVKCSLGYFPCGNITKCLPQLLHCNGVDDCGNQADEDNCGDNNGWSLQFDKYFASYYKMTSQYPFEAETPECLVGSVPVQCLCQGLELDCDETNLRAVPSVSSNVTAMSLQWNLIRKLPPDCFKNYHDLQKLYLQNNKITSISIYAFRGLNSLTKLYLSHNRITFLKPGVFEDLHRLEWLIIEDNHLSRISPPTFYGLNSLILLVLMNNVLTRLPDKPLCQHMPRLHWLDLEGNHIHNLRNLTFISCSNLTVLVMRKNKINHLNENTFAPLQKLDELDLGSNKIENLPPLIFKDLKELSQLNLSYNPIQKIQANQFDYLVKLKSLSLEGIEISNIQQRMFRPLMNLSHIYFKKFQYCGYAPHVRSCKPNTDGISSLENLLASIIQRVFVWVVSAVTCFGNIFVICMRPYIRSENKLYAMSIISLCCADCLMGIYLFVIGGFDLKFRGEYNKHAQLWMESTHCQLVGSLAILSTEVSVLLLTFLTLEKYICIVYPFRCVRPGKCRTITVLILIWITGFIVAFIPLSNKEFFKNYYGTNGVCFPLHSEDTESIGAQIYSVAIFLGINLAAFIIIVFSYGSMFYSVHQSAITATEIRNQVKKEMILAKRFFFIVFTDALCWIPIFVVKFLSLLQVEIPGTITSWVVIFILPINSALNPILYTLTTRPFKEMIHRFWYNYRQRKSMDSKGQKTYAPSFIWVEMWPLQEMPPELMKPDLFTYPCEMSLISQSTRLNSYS
Test: RXFP1 cAMP assay (hRXFP1 HEK293 cAMP assay, HTRF)
Assay type: cell-based
Settings: HEK293 cells stably expressing human RXFP1, 30 min at room temperature, read-out: cAMP hRXFP1 HEK293 Assay EC50
Method in brief: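 HEK293 cells stably expressing human RXFP1 (1500 cells/well) in HBSS/20 mM HEPES/0.05% BSA/0.5 mM IBMX. Compounds were tested at 0.010 nM–50 μM final (2% DMSO) for 30 min at room temperature. cAMP was measured by HTRF and values derived by 4-parameter logistic fit.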

Row | SMILES | EC50
1 | COc1ccc([C@H]2CO[C@@H]3[C@H]2OC[C@@H]3O)cc1C(=O)N[C@H]1[C@@H](C(=O)Nc2ccc(F)c(C(F)(F)F)c2)[C@H]2CC[C@@H]1/C2=C\C1CC1 [compound 560] | 0.0453 µM
2 | COc1cc(F)c(F)cc1C(=O)N[C@@H]1C2CCC(C2=C(C)C)[C@@H]1C(=O)Nc1cccc(S(=O)(=O)C(F)(F)F)c1 (stereo partly drawn) [compound 55] | 0.23 µM
3 | COc1ccc(C2=NOC3C(O)CC(O)C23)cc1C(=O)N[C@H]1[C@@H](C(=O)Nc2ccc(F)c(C(F)(F)F)c2)[C@H]2CC[C@@H]1/C2=C\C1CC1 (single isomer, unassigned) [compound 674] | 0.481 µM
4 | COc1cc(F)c(F)cc1C(=O)N[C@@H]1C2CCC(/C2=C/c2cccc(C)c2)[C@@H]1C(=O)Nc1ccc(F)c(C(F)(F)F)c1 (stereo partly drawn) [compound 24] | 0.094 µM
5 | COc1ccc(Br)cc1C(=O)NC1C2CCC(C2=C(C)C)C1C(=O)Nc1ccc(F)c(C(F)(F)F)c1 (stereo not drawn) [Example 76] | 0.4 µM
6 | COc1ccccc1C(=O)N[C@H]1[C@@H](C(=O)Nc2ccc(F)c(C(F)(F)F)c2)[C@H]2CC[C@@H]1/C2=C\c1ccccc1 [compound 90] | 0.33 µM
7 | Cc1ccc(C2=NOC3COCC23)cc1C(=O)N[C@H]1[C@@H](C(=O)Nc2ccc(F)c(C(F)(F)F)c2)[C@H]2CC[C@@H]1/C2=C\C1CC1 (single isomer, unassigned) [compound 716] | 1.98 µM
8 | COCC1(NC(=O)[C@@H]2[C@H](NC(=O)c3cc(C4=NOC5COCC45)ccc3OC)[C@@H]3CC[C@H]2/C3=C/C2CC2)CCCC1 (stereo partly drawn) [compound 632] | 0.19 µM
9 | COc1ccc(C2=NOC3COCC23)cc1C(=O)N[C@H]1[C@@H](C(=O)NCC(C)(C)OC)[C@H]2CC[C@@H]1/C2=C\C1CC1 (stereo partly drawn) [compound 564] | 0.0473 µM
10 | COC(=O)C(NC(=O)C1CCOCC1)c1ccc(F)c(-c2ccc(OC)c(C(=O)N[C@@H]3C4CCC(/C4=C/C(F)(F)F)[C@@H]3C(=O)Nc3ccc(F)c(C(F)(F)F)c3)c2)c1 (stereo partly drawn) [compound 247] | 0.073 µM
11 | COc1cc(F)c(F)cc1C(=O)N[C@@H]1C2CCC(/C2=C/c2ccccc2)[C@@H]1C(=O)Nc1cccc(S(C)(=O)=O)c1 (stereo partly drawn) [compound 139] | 0.55 µM
12 | COc1ccc(-c2cc(C(=O)O)ccc2F)cc1C(=O)N[C@@H]1C2CCC(/C2=C/C2CC2)[C@@H]1C(=O)NCc1ccccc1OC(F)(F)F (stereo partly drawn) [compound 306] | 0.54 µM
13 | COc1ccc(-c2cc(C(=O)O)ccc2F)cc1C(=O)N[C@@H]1C2CCC(/C2=C/C2CC2)[C@@H]1C(=O)N[C@H](C)c1ccccc1 (stereo partly drawn) [compound 261] | 1.88 µM
14 | COc1ccc(C2=NOC(C(N)=O)C2)cc1C(=O)N[C@@H]1C2CCC(/C2=C/C2CC2)[C@@H]1C(=O)Nc1ccc(F)c(C(F)(F)F)c1 (stereo partly drawn) [compound 404] | 0.045 µM
15 | COc1ccc(C2=NOC3COCC23)cc1C(=O)N[C@H]1[C@@H](C(=O)NC2CCC(C(F)(F)F)C2)[C@H]2CC[C@@H]1/C2=C\C1CC1 (stereo partly drawn) [compound 649] | 0.25 µM
16 | COc1cc(F)c(F)cc1C(=O)N[C@@H]1C2CCC(/C2=C/c2cccc(C#N)c2)[C@@H]1C(=O)Nc1ccc(F)c(C(F)(F)F)c1 (stereo partly drawn) [compound 59] | 0.89 µM
17 | CC[C@H](NC(=O)[C@@H]1[C@H](NC(=O)c2cc(C3=NOC4COCC34)ccc2OC)[C@@H]2CC[C@H]1/C2=C/C1CC1)C1CCC1 (stereo partly drawn) [compound 676] | 0.486 µM
18 | COc1cc(F)c(F)cc1C(=O)N[C@@H]1C2CCC(/C2=C/c2cccs2)[C@@H]1C(=O)Nc1ccc(F)c(C(F)(F)F)c1 (stereo partly drawn) [compound 124] | 0.21 µM
19 | COc1ccc(C2=NOC3COCC23)cc1C(=O)N[C@H]1[C@@H](C(=O)NCCC2CCC2)[C@H]2CC[C@@H]1/C2=C\C1CC1 (stereo partly drawn) [compound 648] | 0.242 µM
20 | COc1ccc(C2CCCN2CC(C)(C)O)cc1C(=O)N[C@@H]1C2CCC(C2=CC2CC2)[C@@H]1C(=O)Nc1ccc(F)c(C(F)(F)F)c1 (stereo partly drawn) [compound 607] | 0.128 µM
21 | COc1ccc(-c2cc(C(=O)O)ccc2F)cc1C(=O)N[C@@H]1C2CCC(/C2=C/C2CC2)[C@@H]1C(=O)NC1CC2(CCC2)C1 (stereo partly drawn) [compound 301] | 0.85 µM

More lines, now with the values ahead:

Row | EC50 | SMILES
22 | 0.011 µM | COc1ccc(-c2cc(C(O)C(=O)O)ccc2F)cc1C(=O)NC1C2CCC(/C2=C/C2CC(F)(F)C2)C1C(=O)Nc1ccc(F)c(C(F)(F)F)c1 (stereo not drawn) [compound 353]
23 | 0.0058 µM | COc1ccc(-c2cc([C@H](OC(=O)NC3CCC3)C(=O)O)ccc2F)cc1C(=O)N[C@H]1[C@@H](C(=O)Nc2ccc(F)c(C(F)(F)F)c2)[C@H]2CC[C@@H]1/C2=C\CC(C)C [compound 937]
24 | 0.013 µM | C=C/C=C1\C2CCC1[C@H](C(=O)Nc1ccc(F)c(C(F)(F)F)c1)[C@@H]2NC(=O)c1cc(-c2cc(C(N)=O)ccc2F)ccc1OC (stereo partly drawn) [compound 163]
25 | 0.0001 µM | COc1ccc(-c2cc(S(C)(=O)=O)ccc2F)cc1C(=O)N[C@H]1[C@@H](C(=O)Nc2ccc(F)c(C(F)(F)F)c2)[C@H]2CC[C@@H]1/C2=C\C1CCCC1 [compound 907]
26 | 0.0105 µM | COc1ccc(C2=NOC3CCC(O)C23)cc1C(=O)N[C@H]1[C@@H](C(=O)Nc2ccc(F)c(C(F)(F)F)c2)[C@H]2CC[C@@H]1/C2=C\C1CC1 (single isomer, unassigned) [compound 496]
27 | 0.002 µM | COc1ccc(-c2cc(C(OC(=O)Nc3ccccc3F)C(F)(F)F)ccc2F)cc1C(=O)N[C@@H]1C2CCC(/C2=C/C2CC2)[C@@H]1C(=O)Nc1ccc(F)c(C(F)(F)F)c1 (stereo partly drawn) [compound 223]
28 | 0.0022 µM | CCC/C=C1\[C@H]2CC[C@@H]1[C@H](C(=O)Nc1ccc(F)c(C(F)(F)F)c1)[C@@H]2NC(=O)c1cc(C2=NOC3CC(CO)CC23)cc(F)c1OC (stereo partly drawn) [compound 793]
29 | 0.0045 µM | COc1ccc(-c2cccc(C3=NOC4CC(O)CC34)c2)cc1C(=O)N[C@H]1[C@@H](C(=O)Nc2ccc(F)c(C(F)(F)F)c2)[C@H]2CC[C@@H]1/C2=C\C1CC1 (stereo partly drawn) [compound 901]
30 | 0.0443 µM | COCCOC1(C2CC(c3ccc(OC)c(C(=O)N[C@H]4[C@@H](C(=O)Nc5ccc(F)c(C(F)(F)F)c5)[C@H]5CC[C@@H]4/C5=C\C4CC4)c3)=NO2)CC1 (single isomer, unassigned) [compound 558]
31 | 0.0195 µM | COc1ccc(C2=NOC3COCC23)cc1C(=O)N[C@H]1[C@@H](C(=O)NC(C2CC2)C2CC2)[C@H]2CC[C@@H]1/C2=C\C1CC1 (stereo partly drawn) [compound 521]
32 | 0.017 µM | O=C(NC1CCC1)OC(c1ccc(F)c(-c2ccc(OCCO)c(C(=O)N[C@H]3[C@@H](C(=O)Nc4ccc(F)c(C(F)(F)F)c4)[C@H]4CC[C@@H]3/C4=C\C3CC3)c2)c1)C(F)(F)F (stereo partly drawn) [Example 253, 1-(3′-(((1R,2R,3S,4R,Z)-7-(cyclopropylmethylene)-3-((4-fluoro-3-(trifluoromethyl)phenyl)carbamoyl)bicyclo[2.2.1]heptan-2-yl)carbamoyl)-6-fluoro-4′-(2-hydroxyethoxy)-[1,1′-biphenyl]-3-yl)-2,2,2-trifluoroethyl cyclobutylcarbamate]
33 | 0.041 µM | COc1ccc(-c2cccnc2F)cc1C(=O)N[C@H]1[C@@H](C(=O)Nc2ccc(F)c(C(F)(F)F)c2)[C@H]2CC[C@@H]1/C2=C\c1ccccc1 [compound 82]
34 | 0.001 µM | COc1ccc(-c2cc(C(OC(=O)N(C)C3CCC3)C(F)(F)F)ccc2F)cc1C(=O)N[C@@H]1C2CCC(/C2=C/C2CC2)[C@@H]1C(=O)Nc1ccc(F)c(C(F)(F)F)c1 (stereo partly drawn) [compound 209]
35 | 0.027 µM | COc1cc(F)c(F)cc1C(=O)N[C@@H]1C2CCC(/C2=C/c2ccc(F)cc2)[C@@H]1C(=O)Nc1ccc(F)c(C(F)(F)F)c1 (stereo partly drawn) [compound 41]
36 | 0.0006 µM | COc1c(F)cc(C2=NOC3CC(CO)CC23)cc1C(=O)N[C@H]1[C@@H](C(=O)N[C@H](C)C2(C)CC2)[C@H]2CC[C@@H]1/C2=C\C1CCCC1 (stereo partly drawn) [compound 811]
37 | 0.0053 µM | COc1ccc(-c2cc(C3=NOC4CC(CO)CC34)ccc2F)cc1C(=O)N[C@H]1[C@@H](C(=O)Nc2ccc(F)c(C(F)(F)F)c2)[C@H]2CC[C@@H]1/C2=C\C1CC1 (stereo partly drawn) [compound 954]
38 | 0.005 µM | COc1ccc(-c2cc(C(OC(=O)Nc3ccccc3)C(=O)O)ccc2F)cc1C(=O)N[C@@H]1C2CCC(/C2=C/C2CC2)[C@@H]1C(=O)Nc1ccc(F)c(C(F)(F)F)c1 (stereo partly drawn) [Example 177]
39 | 0.0028 µM | COc1ccc(-c2cc(C(NC(=O)C3CCOCC3)C(=O)O)ccc2F)cc1C(=O)N[C@H]1[C@@H](C(=O)N[C@H](C)C2(C)CC2(F)F)[C@H]2CC[C@@H]1/C2=C\C1CC(F)(F)C1 (stereo partly drawn) [compound 971]
40 | 0.0036 µM | COc1c(F)cc(C2=NOC3CC(CO)CC23)cc1C(=O)N[C@H]1[C@@H](C(=O)N[C@H](C)C2(C)CC2)[C@H]2CC[C@@H]1/C2=C\CC(O)C(F)(F)F (stereo partly drawn) [compound 832]
41 | 0.0033 µM | COc1cc(C)c(C2=NOC3CC(CO)CC23)cc1C(=O)N[C@H]1[C@@H](C(=O)Nc2ccc(F)c(C(F)(F)F)c2)[C@H]2CC[C@@H]1/C2=C\C1CC1 (stereo partly drawn) [compound 738]
42 | 0.0048 µM | COc1ccc(-c2cc(C(OC(=O)Nc3ccccc3)C(=O)O)ccc2F)cc1C(=O)N[C@H]1[C@@H](C(=O)Nc2ccc(F)c(C(F)(F)F)c2)[C@H]2CC[C@@H]1/C2=C\C1CC1 (stereo partly drawn) [compound 965]

From patent publication US20250221966A1, “RXFP1 AGONISTS” (BRISTOL-MYERS SQUIBB COMPANY, priority 2021, published 2025)
